{
  "source": "ChEMBL document CHEMBL5634141",
  "about": "(Eur J Med Chem, 2023)",
  "key": {"MIA PaCa-2 [1]": {"test_system": "MIA PaCa-2", "assay": "Antitumor activity against human MIA PaCa-2 cells xenografted in BALB/c nude mouse assessed as increase in percentage of cleaved-caspase 3-positive cells at 10 to 30 mg/kg, ip administered for 16 days by immunohistochemical staining analysis", "assay_type": "functional, organism-based", "details": "dose 10-30 mg/kg, time 16.0 day"}, "NCI-H358 [2]": {"test_system": "NCI-H358", "assay": "Inhibition of cell migration in human NCI-H358 cells incubated for 12 hrs by wound healing assay", "assay_type": "functional, cell-based", "details": "dose 30-300 nM"}, "[3]": {"test_system": "von Hippel-Lindau disease tumor suppressor/GTPase KRas (Homo sapiens), P01116+P40337 [G12C]", "assay": "PROTAC activity at VHL/KRAS G12C mutant in human MIA PaCa-2 cells assessed as induction of protein degradation in presence of MG132 by Western blot analysis", "assay_type": "cell-based"}, "NCI-H23 [4]": {"test_system": "NCI-H23", "assay": "Antiproliferative activity against human NCI-H23 cells expressing KRAS G12C mutant assessed as relative cell viability at 30 nM incubated for 72 hrs in presence of infigratinib by CCK-8 assay", "assay_type": "functional", "details": "read-out: Activity"}, "[5]": {"assay": "Volume of distribution at steady state in ICR mouse at 2 mg/kg, iv measured after 24 hrs by LC-MS/MS analysis", "assay_type": "ADME, organism-based", "details": "in vivo"}, "[6]": {"test_system": "von Hippel-Lindau disease tumor suppressor/GTPase KRas (Homo sapiens), P01116+P40337 [G12C]", "assay": "PROTAC activity at VHL/KRAS G12C mutant in human NCI-H358 cells assessed as inhibition of ERK phosphorylation incubated for 48 hrs by Western blotting analysis", "assay_type": "cell-based", "details": "dose 10-10000 nM"}, "MIA PaCa-2 [7]": {"test_system": "MIA PaCa-2", "assay": "Antiproliferative activity against human MIA PaCa-2 cells expressing KRAS G12C mutant assessed as relative cell viability at 30 nM incubated for 72 hrs in presence of infigratinib by CCK-8 assay", "assay_type": "functional", "details": "read-out: Activity"}, "[8]": {"test_system": "von Hippel-Lindau disease tumor suppressor/GTPase KRas (Homo sapiens), P01116+P40337 [G12C]", "assay": "PROTAC activity at VHL/KRAS G12C mutant in human MIA PaCa-2 cells assessed as induction of protein degradation by measuring maximal efficacy by Western blotting analysis relative to control", "assay_type": "cell-based"}, "NCI-H358 [9]": {"test_system": "NCI-H358", "assay": "Induction of apoptosis in human NCI-H358 cells assessed as early apoptotic cells at 100 nM incubated for 48 hrs by Annexin V-FITC staining based flow cytometry analysis (reference value: 1.60 %)", "assay_type": "functional"}, "NCI-H358 [10]": {"test_system": "NCI-H358", "assay": "Induction of apoptosis in human NCI-H358 cells assessed as necrotic cells at 30 nM incubated for 48 hrs by Annexin V-FITC staining based flow cytometry analysis (reference value: 1.62 %)", "assay_type": "functional"}, "[11]": {"test_system": "von Hippel-Lindau disease tumor suppressor/GTPase KRas (Homo sapiens), P01116+P40337 [G12C]", "assay": "PROTAC activity at VHL/KRAS G12C mutant in human MIA PaCa-2 cells assessed as induction of protein degradation at 100 nM incubated for 1 to 8 days by Western blotting analysis", "assay_type": "cell-based", "details": "time 1-8 day"}, "MIA PaCa-2 [12]": {"test_system": "MIA PaCa-2", "assay": "Induction of apoptosis in human MIA PaCa-2 cells assessed as viable cells at 30 nM incubated for 48 hrs by Annexin V-FITC staining based flow cytometry analysis (reference value: 91.5 %)", "assay_type": "functional", "details": "read-out: Activity"}, "[13]": {"test_system": "von Hippel-Lindau disease tumor suppressor/GTPase KRas (Homo sapiens), P01116+P40337 [G12C]", "assay": "PROTAC activity at VHL/KRAS G12C mutant in human NCI-H358 cells assessed as inhibition of ERK phosphorylation at 100 nM incubated for 1 to 8 days by Western blotting analysis", "assay_type": "cell-based", "details": "time 1-8 day"}, "MIA PaCa-2 [14]": {"test_system": "MIA PaCa-2", "assay": "Antiproliferative activity against human MIA PaCa-2 cells expressing KRAS G12C mutant assessed as relative cell viability at 30 nM incubated for 72 hrs in presence of selumetinib by CCK-8 assay", "assay_type": "functional", "details": "read-out: Activity"}, "[15]": {"test_system": "von Hippel-Lindau disease tumor suppressor/GTPase KRas (Homo sapiens), P01116+P40337 [G12C]", "assay": "PROTAC activity at VHL/KRAS G12C mutant in human NCI-H358 cells assessed as induction of protein degradation at 300 nM incubated for 6 hrs by Western blotting analysis relative to control", "assay_type": "cell-based"}, "MIA PaCa-2 [16]": {"test_system": "MIA PaCa-2", "assay": "Inhibition of colony formation in human MIA PaCa-2 cells expressing KRAS G12C mutant assessed as reduction in cell number at 30 nM incubated for 14 days in presence of SHP099 by crystal violet staining based analysis", "assay_type": "functional", "details": "time 14.0 day"}, "NCI-H358 [17]": {"test_system": "NCI-H358", "assay": "Induction of apoptosis in human NCI-H358 cells assessed as late apoptotic cells at 30 nM incubated for 48 hrs by Annexin V-FITC staining based flow cytometry analysis (reference value: 5.20 %)", "assay_type": "functional"}, "[18]": {"assay": "AUC (0 to t) in ICR mouse at 2 mg/kg, iv measured after 24 hrs by LC-MS/MS analysis", "assay_type": "ADME, organism-based", "details": "in vivo"}, "[19]": {"test_system": "von Hippel-Lindau disease tumor suppressor/GTPase KRas (Homo sapiens), P01116+P40337 [G12C]", "assay": "PROTAC activity at VHL/KRAS G12C mutant in human NCI-H358 cells assessed as inhibition of AKT phosphorylation at 100 nM incubated for 1 to 8 days by Western blotting analysis", "assay_type": "cell-based", "details": "time 1-8 day"}, "MIA PaCa-2 [20]": {"test_system": "MIA PaCa-2", "assay": "Induction of cell cycle arrest in human MIA PaCa-2 cells assessed as accumulation of cells at G2/M phase incubated for 48 hrs by propidium iodide staining based flow cytometry analysis", "assay_type": "functional", "details": "dose 30-300 nM"}, "NCI-H358 [21]": {"test_system": "NCI-H358", "assay": "Antiproliferative activity against human NCI-H358 cells expressing KRAS G12C mutant assessed as reduction of cell growth by measuring fold decrease in IC50 incubated for 72 hrs in presence of AZD4573 by CCK-8 assay", "assay_type": "functional"}, "Mus musculus": {"test_system": "Mus musculus", "assay": "In vivo PROTAC activity at VHL/KRAS G12C mutant in BALB/c nude mouse xenografted with human MIA PaCa-2 cells assessed as decrease in ERK phosphorylation at 10 to 30 mg/kg, ip administered for 16 days by Western blot analysis", "assay_type": "functional, organism-based", "details": "dose 10-30 mg/kg, time 16.0 day"}, "MIA PaCa-2 [22]": {"test_system": "MIA PaCa-2", "assay": "Antiproliferative activity against human MIA PaCa-2 cells expressing KRAS G12C mutant assessed as relative cell viability at 30 nM incubated for 72 hrs in presence of MK-2206 by CCK-8 assay", "assay_type": "functional", "details": "read-out: Activity"}, "Calu-1": {"test_system": "Calu-1", "assay": "Antiproliferative activity against human Calu-1 cells expressing KRAS G12C mutant assessed as relative cell viability at 30 nM incubated for 72 hrs in presence of selumetinib by CCK-8 assay", "assay_type": "functional", "details": "read-out: Activity"}, "MIA PaCa-2 [23]": {"test_system": "MIA PaCa-2", "assay": "Antiproliferative activity against human MIA PaCa-2 cells expressing KRAS G12C mutant assessed as relative cell viability at 30 nM incubated for 72 hrs by CCK-8 assay", "assay_type": "functional", "details": "read-out: Activity"}, "MIA PaCa-2 [24]": {"test_system": "MIA PaCa-2", "assay": "Antiproliferative activity against human MIA PaCa-2 cells expressing KRAS G12C mutant assessed as inhibition of cell growth at 100 nM incubated for 8 days by CCK-8 assay", "assay_type": "functional, cell-based", "details": "time 8.0 day"}, "NCI-H23 [25]": {"test_system": "NCI-H23", "assay": "Antiproliferative activity against human NCI-H23 cells expressing KRAS G12C mutant assessed as relative cell viability at 30 nM incubated for 72 hrs in presence of daclolisib by CCK-8 assay", "assay_type": "functional", "details": "read-out: Activity"}, "[26]": {"test_system": "von Hippel-Lindau disease tumor suppressor/GTPase KRas (Homo sapiens), P01116+P40337 [G12C]", "assay": "PROTAC activity at VHL/KRAS G12C mutant in human NCI-H358 cells assessed as induction of protein degradation at 100 nM incubated for 48 hrs followed by compound washout by Western blotting analysis", "assay_type": "cell-based"}, "MIA PaCa-2 [27]": {"test_system": "MIA PaCa-2", "assay": "Antiproliferative activity against human MIA PaCa-2 cells expressing KRAS G12C mutant assessed as relative cell viability at 30 nM incubated for 72 hrs in presence of daclolisib by CCK-8 assay", "assay_type": "functional", "details": "read-out: Activity"}, "MIA PaCa-2 [28]": {"test_system": "MIA PaCa-2", "assay": "Antitumor activity against human MIA PaCa-2 cells xenografted in BALB/c nude mouse assessed as reduction in number of tumor foci at 10 to 30 mg/kg, ip administered for 16 days by hematoxylin and eosin staining based analysis", "assay_type": "functional, organism-based", "details": "dose 10-30 mg/kg, time 16.0 day"}, "MIA PaCa-2 [29]": {"test_system": "MIA PaCa-2", "assay": "Antiproliferative activity against human MIA PaCa-2 cells expressing KRAS G12C mutant assessed as relative cell viability at 30 nM incubated for 72 hrs in presence of crizotinib by CCK-8 assay", "assay_type": "functional", "details": "read-out: Activity"}},
  "note": "The source made the active and inactive calls. No cut-off for these calls is given here.",
  "data": [
    {"smiles": "C=CC(=O)N1CCN(c2nc(=O)n(-c3c(C)ccnc3C(C)C)c3nc(-c4c(F)cccc4OCC4CCN(CCCC(=O)N[C@H](C(=O)N5C[C@H](O)C[C@H]5C(=O)NCc5ccc(-c6scnc6C)cc5)C(C)(C)C)CC4)c(F)cc23)[C@@H](C)C1", "values": [
      {"measurement": "Activity", "setting": "MIA PaCa-2 [1]", "value": "Active"},
      {"measurement": "inhibition", "setting": "NCI-H358 [2]", "value": "Dose-Dependent Effect"},
      {"measurement": "Activity", "setting": "[3]", "value": "inactive"},
      {"measurement": "viability at 0.03 µM", "setting": "NCI-H23 [4]", "value": 0.41, "unit": "%"},
      {"measurement": "Vdss", "setting": "[5]", "value": 2, "unit": "L/kg"},
      {"measurement": "Activity", "setting": "[6]", "value": "Dose-Dependent Effect"},
      {"measurement": "viability at 0.03 µM", "setting": "MIA PaCa-2 [7]", "value": 0.35, "unit": "%"},
      {"measurement": "Emax", "setting": "[8]", "value": "> 95", "unit": "%"},
      {"measurement": "Activity", "setting": "NCI-H358 [9]", "value": 2.94, "unit": "%"},
      {"measurement": "Activity", "setting": "NCI-H358 [10]", "value": 1.01, "unit": "%"},
      {"measurement": "Activity", "setting": "[11]", "value": "Active"},
      {"measurement": "viability at 0.03 µM", "setting": "MIA PaCa-2 [12]", "value": 88.8, "unit": "%"},
      {"measurement": "Activity", "setting": "[13]", "value": "Active"},
      {"measurement": "viability at 0.03 µM", "setting": "MIA PaCa-2 [14]", "value": 0.1, "unit": "%"},
      {"measurement": "Activity", "setting": "[15]", "value": 50, "unit": "%"},
      {"measurement": "inhibition", "setting": "MIA PaCa-2 [16]", "value": "Active"},
      {"measurement": "Activity", "setting": "NCI-H358 [17]", "value": 6.13, "unit": "%"},
      {"measurement": "AUC(0-t) at 24 h", "setting": "[18]", "value": 399, "unit": "ng·h/mL"},
      {"measurement": "Activity", "setting": "[19]", "value": "Active"},
      {"measurement": "Activity", "setting": "MIA PaCa-2 [20]", "value": "Dose-Dependent Effect"},
      {"measurement": "fold change (FC)", "setting": "NCI-H358 [21]", "value": "~6"},
      {"measurement": "Activity", "setting": "Mus musculus", "value": "Active"},
      {"measurement": "viability at 0.03 µM", "setting": "MIA PaCa-2 [22]", "value": 0.24, "unit": "%"},
      {"measurement": "viability at 0.03 µM", "setting": "Calu-1", "value": 0.13, "unit": "%"},
      {"measurement": "viability at 0.03 µM", "setting": "MIA PaCa-2 [23]", "value": 0.71, "unit": "%"},
      {"measurement": "Activity", "setting": "MIA PaCa-2 [24]", "value": "Active"},
      {"measurement": "viability at 0.03 µM", "setting": "NCI-H23 [25]", "value": 0.23, "unit": "%"},
      {"measurement": "Activity", "setting": "[26]", "value": "Active"},
      {"measurement": "viability at 0.03 µM", "setting": "MIA PaCa-2 [27]", "value": 0.17, "unit": "%"},
      {"measurement": "Activity", "setting": "MIA PaCa-2 [28]", "value": "Active"},
      {"measurement": "viability at 0.03 µM", "setting": "MIA PaCa-2 [29]", "value": 0.28, "unit": "%"}
    ]}
  ]
}
